Assay results taken from patent publication US10471076B2, “Compositions and methods to treat vision disorders” (YouHealth Biotech, Limited, priority 2014, dated 2019).
Entries after “also recorded” stand apart in the source; their conditions may differ.

How the values were obtained:
[1] = test system: cataract-causing mutant crystallin proteins; assay: Intracellular aggregation of mutant crystallins in transfected human lens progenitor cells; assay type: cell-based
Experimental: To assess the effect of lanosterol on crystallin aggregation, human lens progenitor cells were co-transfected with LSS and various crystallin constructs for 4 h. Cells co-transfected with crystallin mutants and pcDNA3.1-N-Flag were used as a control. Human lens progenitor cells co-transfected with LSS and crystallin mutant constructs were cultured for 12 h before assaying for aggregates. The rescue experiments were performed after 16 h by addition of 40 mM sterols (lanosterol or cholesterol, Sigma-Aldrich) to the cell culture medium for 2 h, which was then replaced with fresh culture medium and cells cultured for 24 h. The percentage of cells with crystallin aggregates was calculated from ten randomly selected viewing fields. The values of the wild-type LSS group, mutant group, and mutant plus lanosterol group were calculated. Cells treated with 1% DMSO were used as the controls.
The impact of LSS and lanosterol on intracellular crystallin aggregation were evaluated in single-blinded observer studies. Experiments have been repeated at least three times. P values were calculated using Student's t-tests. Fluorescence microscopy. Equal amounts of the human lens progenitor cells, HLEB-3 cells or HeLa cells were seeded on glass coverslips pretreated with TC (Solarbio). After culturing for 24 h to reach 90% confluency, the cells were transfected with plasmids containing various LSS or crystallin genes or co-transfected with plasmids containing a certain crystallin gene and those containing the wild-type or mutated LSS gene. The controls were cells transfected with the plasmids containing peGFP-N1 and/or peDNA3.1-N-Flag. Both transfection and co-transfection were performed using Lipofectamine 3000 (Invitrogen) according to the instructions from the manufacturer.
The effect of lanosterol or cholesterol on the aggresome formation of various crystallins was studied by transfecting the cells with plasmids containing various crystallin genes. The cells were incubated for 24 h to enable efficient protein expression and aggresome formation. The cells were then treated with 0-40 mM sterols in 1% (for human lens progenitor cells) or 2% DMSO (for HeLa cells). Cells treated with 1% or 2% DMSO were used as the control. After treatment for 2 h, the media was replaced with fresh media. After 12 h, the cells were used for microscopy analysis.
The microscopy samples were prepared by washing the slips with phosphate buffered saline (PBS) three times. The cells were fixed with 4% paraformaldehyde for 40 min followed by another three washes with PBS. The cells were permeabilized with 0.1% Triton X-100 (Sigma) in PBS for 10 min and blocked with 5% normal goat serum in PBS for 1 h at 37° C. […] The mounted cells were analysed using a Carl Zeiss LSM 710 confocal microscope.

[2] = test system: cataract-causing mutant crystallin proteins; assay: Intracellular aggregation of mutant crystallins in HLEB-3 cells; assay type: cell-based, human; details: HLEB-3 cells co-transfected with LSS and crystallin mutant; 40 μM sterols 2 h, then 12 h; lanosterol P<1×10^−4, cholesterol P>0.1
Experimental: (§1) FIG. 9A, FIG. 9B, and FIG. 9C show inhibition of crystallin mutant aggregation by wild-type LSS and lanosterol in HLEB-3 cells (FIG. 9A) or HeLa cells (FIG. 9B). Cells co-transfected with LSS and crystallin mutant constructs were cultured for 24 h before assaying for aggregates. The rescue experiments were performed by addition of 40 […] μM sterols (lanosterol or cholesterol) to the cell culture medium for 2 h, the sterol medium was then replaced with fresh culture medium and the cells were cultured for a further 12 h. The percentage of cells with crystallin aggregates were calculated from ten randomly selected viewing fields. The values of the wild-type LSS group, mutant group, or mutant plus lanosterol group were calculated. […] After transfection for 4 h and incubation in fresh culture medium for another 24 h, the cells were lysed and centrifuged to separate supernatant and insoluble fractions. LSS and crystallin fusion proteins were detected by antibodies against Flag and GFP, respectively. Red arrows indicate higher crystalline content in the soluble fraction versus in the insoluble fraction in cells containing the WT-LSS.
(§2) Cells were transfected with various crystallin constructs for 4 h and cultured for an additional 24 h in fresh culture medium. Then the cells were treated with 10, 20 and 40 μM lanosterol in 1% (HLEB-3 cells) or 2% DMSO (HeLa cells) for 2 h and cultured for another 12 h. Cells treated with 1% (HLEB-3 cells) or 2% DMSO (HeLa cells) were used as the controls. Formation of intracellular aggregates of various crystallin proteins was visualized by fluorescence of GFP (green) and the nuclei were stained with Hoechst 33342 (blue). Typical intracellular aggregates are indicated by arrows.
(§3) The impact of LSS and lanosterol on intracellular crystallin aggregation were evaluated in single-blinded observer studies. Experiments have been repeated at least three times. P values were calculated using Student's t-tests. Fluorescence microscopy. […]

[3] = test system: cataract-causing mutant crystallin proteins; assay: Intracellular aggregation of mutant crystallins in HeLa cells; assay type: cell-based, human; details: HeLa cells co-transfected with LSS and crystallin mutant; 40 μM sterols 2 h, then 12 h; lanosterol P<1×10^−4, cholesterol P>0.1
Experimental: as §1, §2, §3

[4] = biological target: T1, αA-crystallin (Y118D) aggregates (Homo sapiens, UniProt P02489, Y118D); assay: Serial live-cell imaging, single-particle tracking of aggregates; assay type: cell-based; details: human lens progenitor cells; 40 mM sterol in 1% DMSO for 4 h
T1 construct: expressed in transfected cells; host or cells: human lens progenitor cells, G418-selected
T1 sequence (P02489 1-173 Y118D): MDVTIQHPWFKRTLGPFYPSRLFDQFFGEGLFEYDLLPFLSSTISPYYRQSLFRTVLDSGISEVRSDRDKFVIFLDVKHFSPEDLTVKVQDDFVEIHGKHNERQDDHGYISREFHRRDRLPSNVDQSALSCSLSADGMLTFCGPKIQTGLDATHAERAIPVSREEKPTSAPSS
Experimental: Live-cell imaging. Human lens progenitor cells were transfected with plasmids containing αA-crystallin (Y118D) mutant. After a 24 h transfection period, the cells with stable expression of αA-crystallin (Y118D) mutant were screen by incubation in culture medium containing 0.8 mg ml^−1 G418 for 7 days. Then the obtained cells were seeded onto glass bottom cell culture dishes (In Vitro Scientific) and treated with 1% DMSO, 40 mM cholesterol in 1% DMSO or 40 mM lanosterol in 1% DMSO for 4 h. Fresh culture medium was added, and the cells were analysed by serial live-cell imaging. Live-cell images were viewed with an Olympus IX81 microscope and captured with CellSens Dimension soft-ware (Olympus). Quantitative analysis of the size of aggregates was performed by measuring the fluorescence intensity of p62-positive aggregates using single-par-tide tracking in live-cell imaging. The live-cell imaging was conducted using three biological replicates with 1-8 repetitions each.

[5] = test system: amyloid-like fibrils of crystallin proteins; assay: Re-dissolution of pre-formed amyloid-like fibrils (ThT fluorescence, TEM, turbidity); assay type: biochemical, human; details: 0.2 mg/ml aggregates; 500 μM sterols in 500 μM DPPC liposome (b129 prints 500 mM), 37° C., 24 h; TEM and ThT fluorescence; concentration-dependent
Experimental: Crystallin aggregates were formed by incubating 5 mg ml^−1 protein solution at 60° C. for 2 h (α-crystallins) or 37° C. for 48 h (β- and γ-crystallins) in the presence of 1 M guanidine chloride. The preformed aggregates were re-suspended in PBS at a final protein concentration of 0.2 mg ml^−1 and were treated with 500 μM sterols in 500 μM DPPC liposome and incubated at 37° C. for 24 h. Aggregates treated with 500 μM DPPC liposome only were used as the controls. […] Aggregates treated with 500 μM DPPC liposome only were used as the controls.
All protein samples were prepared in 20 mM PBS buffer containing 150 mM NaCl, 1 mM EDTA and 1 mM DTT.
Protein aggregation and aggregate dissociation. The aggregates of the wild-type and mutated αA- and αB-crystallin proteins were obtained by heating the protein solutions containing 1 M guanidine chloride (ultrapure, Sigma-Aldrich) at a con-centration of 5 mg/ml at 60° C. for 2 h. The aggregates of the wild-type and mutated b- and c-crystallins were prepared by heating the protein solutions containing 1 M guanidine chloride at 37° C. for 48 h. The formation of aggregates was confirmed by ThT fluorescence, turbidity (absorbance at 400 nm) and transmission electron microscopy (TEM) observations. […] After 24 h of treatment, the protein solutions were used for ThT fluorescence, turbidity and negatively stained TEM observations. […]

LSS = biological target: T2, LSS (Rattus norvegicus, UniProt P48450); details: cited from earlier work
T2 sequence (P48450 1-733): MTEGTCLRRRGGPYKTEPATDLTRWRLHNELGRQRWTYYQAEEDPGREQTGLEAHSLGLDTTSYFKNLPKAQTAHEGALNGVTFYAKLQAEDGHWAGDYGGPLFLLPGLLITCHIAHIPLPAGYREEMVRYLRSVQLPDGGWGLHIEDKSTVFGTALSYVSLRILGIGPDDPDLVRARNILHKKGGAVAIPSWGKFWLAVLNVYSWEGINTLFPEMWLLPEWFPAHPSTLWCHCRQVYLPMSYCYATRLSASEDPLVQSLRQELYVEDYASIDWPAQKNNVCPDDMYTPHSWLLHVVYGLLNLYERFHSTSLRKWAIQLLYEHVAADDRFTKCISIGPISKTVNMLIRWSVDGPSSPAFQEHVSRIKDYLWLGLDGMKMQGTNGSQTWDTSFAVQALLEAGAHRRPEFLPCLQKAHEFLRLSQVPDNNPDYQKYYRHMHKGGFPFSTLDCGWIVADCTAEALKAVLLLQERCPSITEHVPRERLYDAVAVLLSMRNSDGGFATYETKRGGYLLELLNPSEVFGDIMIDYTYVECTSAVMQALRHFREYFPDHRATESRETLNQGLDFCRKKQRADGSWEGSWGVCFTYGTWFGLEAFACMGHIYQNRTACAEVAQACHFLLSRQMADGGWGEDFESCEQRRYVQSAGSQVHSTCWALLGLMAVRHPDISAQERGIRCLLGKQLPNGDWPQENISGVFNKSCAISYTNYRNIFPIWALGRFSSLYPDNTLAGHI

SMILES	intracellular aggregation / aggresome formation of crystallin proteins ([1]; 0-40 mM sterols in 1% DMSO for 2 h, then 12 h, concentration-dependent, n=3, lanosterol P<1×10^−4, cholesterol P>0.1)	crystallin aggregation in cells co-expressing an LSS mutant and a mutant crystallin (rescue by sterol) ([1]; 40 mM sterols in culture medium for 2 h, then fresh medium 24 h)	percentage of cells with crystallin aggregates versus control group (rescue) [2]	percentage of cells with crystallin aggregates versus control group (rescue) [3]	effect on αA-crystallin (Y118D) aggregates in live cells [4]	re-dissolution of aggregated crystallin proteins from amyloid-like fibrils [5]	cataract formation by inhibition of LSS (LSS)
CC(C)CCC[C@@H](C)[C@H]1CC[C@H]2[C@@H]3CC=C4C[C@@H](O)CC[C@]4(C)[C@H]3CC[C@]12C [cholesterol, reference compound]	had no effect; also recorded: did not reduce intracellular aggregation	but not cholesterol	showed no difference to the control group	showed no difference to the control group	did not reduce aggresome formation	but not cholesterol	
CCN(CC)CCO[C@H]1CC[C@@]2(C)C(=CC[C@@H]3[C@@H]2CC[C@]2(C)C(=O)CC[C@@H]32)C1 [U18666A]							cause cataracts
